One assay deals with MDA-MB-468 cells. In words: Western blot of cell cycle and apoptosis related proteins, MDA-MB-468. It is filed as cell-based. Conditions: for expression of apoptosis related proteins (Bcl-2 family, caspase-3 activation) (Western blot) / p21Waf1/Cip1 expression (Western blot) / p27Kip1 expression (Western blot): IC50 for 6, 12, 24 h vs untreated control; for retinoblastoma protein (Rb) expression, phosphorylated and dephosphorylated forms (Western blot): vs untreated control. The method, then:
The cells were seeded in a density 1.6×10^4 cells/cm^2 (LNCaP), 1.4×10^4 cells/cm^2 (DU-145, MDA-MB-468 and MCF-7) using culture medium in 100-mm culture Petri dishes. After reaching of 70-80% confluence, the cells were treated with tested compounds 9 in concentration IC50 that were evaluated by MTT analysis described above. DMSO was used as a vehicle for controls. After 6, 12 and 24 h treatment, the cells were washed with cold PBS and scraped in ice-cold protein extract ion buffer (50 mM HEPES, pH 7.5; 150 mM NaCl; 1 mM EDTA; 2.5 mM EGTA; 10% glycerol; 0.1% Tween 20) with protease and phosphatase inhibitors (25 μL/mL phenylmethanesulphonyl fluoride; 2.5 μL/mL leupeptin; 0.1 mM Na3VO4; 2.5 μL/mL aprotinin; 10 mM β-glycerol-phosphate; 1 mM dithiothreitol). The lysates were collected into microfuge tube and incubated on ice for 1 h. Cells were incubated 60 min at 4° C. under time by time shaking in protein extraction buffer. After centrifugation at 45 000×g for 30 min at 4° C., supernatant was collected, aliquoted, and stored at −80° C. The protein content in the lysates was measured by a Bredford assay (Bio-Rad Laboratories, Hercules, Calif., USA) according to the manufacture's protocol.
For Western blot analysis, equal aliquots of proteins (15-30 μg/well) were loaded on 10% or 12% SDS-PAGE gels and transferred onto nitrocellulose membranes (Amersham Biosciences, Vienna, Austria) by semi-dry electrophoretic transfer. Coloured marker (Rainbow™, Amersham Biosciences, Vienna, Austria) was used as a protein molecular weight standard. The non-specific binding sites were blocked by incubating the blot with 5% (w/v) non-fat dry milk in PBS for 2 h. The blot was incubated overnight in 4° C. with appropriate primary antibody that detects the protein epitope of interest and finally washed in PBS with 0.1% Tween 20 for 1 h. The blot was incubated with the diluted secondary goat anti-mouse IgG-horseradish peroxidase conjugated antibody (dilution 1:6000, Santa Cruz Biotechnology, Santa Cruz, Calif., USA) or goat anti-rabbit IgG-horseradish peroxidase conjugated antibody (dilution 1:2000, DakoCytomation, Glostrup, Denmark) for 45 min in 4° C. The membrane was washed in PBS with 0.1% Tween 20 for 1 h. The proteins were detected using a chemiluminescence detection system (Amersham Biosciences, Vienna, Austria) according to the protocol provided by the manufacturer. Equality of loaded proteins was confirmed by Ponceau S membrane staining (Sigma, St. Louis, Mo., USA) and by detection of anti-tubulin-α or anti-mcm-7 antibodies. The experiments were repeated three times. The protein expressions in treated cells were compared to untreated controls.
Western blot analysis was used to detect changes in apoptosis related protein expression in breast and prostate cancer cell lines. […] This decreased expression of Bid can indicate a cleavage of the protein after treatment by BRs. In DU-145 cell line, expression of pro-apoptotic proteins Bax and Bid was unchanged. […] On the other hand, caspase cleavage was not found in DU-145 cells. Poly-(ADP-ribose) polymerase (PARP) positive expression in controls of prostate cancer cell lines was observed but brassinosteroids had no effect on its expression nor on its degradation within the period 6/12/24 h (FIG. 6B).
On the technique in general: A western blot detects proteins with antibodies after separation by electrophoresis.

Assay [1] concerns cultured mouse hybridoma cells. As to conditions: cited from earlier work; for density of viable cells / growth: mouse hybridoma cells, concentrations of 10^−13 mol/L and 10^−12 mol/L.
Assay [2] deals with normal and cancer cell lines of different histopathological origin. In words: Calcein AM cytotoxicity assay, summary statements over the cell line panel. It is filed as cell-based. Conditions: versus 28-homobrassinolide 2. The method, then: Stock solutions ([…]) were prepared by dissolving relevant quantity of substance in DMSO cultivation media (DMEM, RPMI 1640, F-12 medium), fetal bovine serum (FBS), L-glutamine, penicillin, and streptomycin were purchased from Sigma (MO, USA). 3-(4,5-Dimethylthiazol-2-yl)-2,5-diphenyltetrazolium bromide (MTT) was from Serva Electrophoresis (Heidelberg, Germany). Monoclonal mouse anti-bromodeoxyuridine (BrdU) intibody was obtained from DakoCytomation (Glostrup, Denmark). Calcein AM was obtained from PAA Laboratories GmbH (Pasching, Austria). The screening cell lines (T-lymphoblastic leukaemia cell line CEM; breast carcinoma cell line MCF-7 (estrogen-sensitive), breast adenocarcinoma cell line MDA-MB 468 (cell lines LNCaP (androgen-sensitive), prostate carcinoma cell line DU-145 ([…]), lung carcinoma cell line A-549, chronic myelogenous leukemia cell line K562, multiple myeloma cell line RPMI 8226, cervical carcinoma cell line HeLa, malignant human melanoma cell line G361, osteosarcoma cell line HOS, and normal human fibroblasts (BJ) were obtained from the American Type Culture Collection (Manassas, Va., USA). MCF-7 cells were cultured in F-12 medium (Sigma, MO, USA). LNCaP cells were cultured in RPMI 1640 medium (GIBCO, USA). All other cells were cultured in DMEM medium (Sigma, MO, USA). All used media were supplemented with 10% heat-inactivated fetal bovine serum, 2 mmol/L L-glutamine, 1% penicillin/streptomycin. The cell lines were maintained under standard cell culture conditions at 37° C. and 5% CO2 in a humid environment. Cells were subcultured twice or three times a week using the standard trypsinization procedure (Sigma, USA).
The cell suspension of approximate density of 1.25×10^5 cells/mL was redistributed into 96-well microtitre plates and after 12 h of stabilization the tested Brassinosteroids (BRs) were added in different concentrations. BRs were dissolved in DMSO. Control cultures were treated with DMSO alone. The final concentration of DMSO in the reaction mixture never exceeded 1%. Tested compounds in given concentrations were added at time zero in 20 μL aliquots to the microtiter plate wells. Usually, each test compound was evaluated at six 4-fold dilutions. In routine testing, the highest well concentration was 50 μmol, but it can be the matter of change dependent on the agent. Cultivation proceeds 96 h at 37° C., the cells were incubated with Calcein AM solution (Molecular Probes) for 1 h. Fluorescence (OD) of viable cells was quantified with Fluoroscan Ascent (Microsystems). The cell survival (IC50) was calculated using the following equation: IC50=(ODdrug exposed well/mean ODcontrol wells)×100%. Each compound was tested in triplicates and the test was repeated at least 3 times. The IC50 value, corresponding to drug concentration lethal to 50% of the tumor cells, was calculated from the obtained dose response curves.
We investigated effects of brassinosteroid on viability of normal and cancer cell lines of different histopathological origin. To evaluate the cytotoxic properties of several BRs and some related steroids, we used T-lymphoblastic leukaemia cell line CEM, breast carcinoma cell line MCF-7, lung carcinoma cell line A-549, chronic myeloid leukaemia cell line K562, multiple myeloma cell line RPMI 8226, cervical carcinoma cell line HeLa, malignant melanoma cell line G361, osteosarcoma cell line HOS, and normal human fibroblasts BJ. The cells were exposed to six 4-fold dilutions of each drug for 72 h to determinate number of surviving cells.

Structures are written as SMILES. Where two headings read alike, the source gives them in different places.

The source of these data is patent publication US20100204460A1, “NATURAL BRASSINOSTEROIDS FOR USE FOR TREATING HYPERPROLIFERATION, TREATING PROLIFERATIVE DISEASES AND REDUCING ADVERSE EFFECTS OF STEROID DYSFUNCTION IN MAMMALS, PHARMACEUTICAL COMPOSITION AND ITS USE” (priority 2007, published 2010).

As to `CC(C)[C@@H](C)[C@@H](O)[C@H](O)[C@@H](C)[C@H]1CC[C@H]2[C@@H]3COC(=O)[C@H]4C[C@H](O)[C@H](O)C[C@]4(C)[C@H]3CC[C@]12C` [Brassinosteroid 6, 24-Epibrassinolide], the “cyclin D1 expression (Western blot)” value in the assay with MDA-MB-468 cells (6/12/24 h vs untreated control) is given as “decreased expression of cyclin D1”. Besides, in the assay with MDA-MB-468 cells, the “expression of apoptosis related proteins (Bcl-2 family, caspase-3 activation) (Western blot)” value is given as “no significant changes in expression of Bcl-2 family protein nor caspase-3 activation”; the “p21Waf1/Cip1 expression (Western blot)” value is “significantly increased after 12 and 24 h”; the “p27Kip1 expression (Western blot)” value is “decreased in all time points”; the “retinoblastoma protein (Rb) expression, phosphorylated and dephosphorylated forms (Western blot)” value is “decreased”. In assay [1] (cultured mouse hybridoma cells), the S-phase cells result is on record as “decrease of S-phase cells”, the “fraction of the cells in G0/G1 phase” value is listed as “increase in the fraction of the cells in G0/G1 phase”, the intracellular antibody level result is reported as “decrease of intracellular antibody level” and the “value of mitochondrial membrane potential” value was “increase in the value of mitochondrial membrane potential”. Moreover, in assay [1] (listed as 6), the “density of viable cells / growth” value is listed as “significant positive effect”. In assay [1] (listed as 24-epibrassinolide), the “density of viable cells / growth” value is “significantly higher”.

On to `CC[C@@H](C(C)C)[C@@H](O)[C@H](O)[C@@H](C)[C@H]1CC[C@H]2[C@@H]3CC(=O)[C@H]4C[C@H](O)[C@H](O)C[C@]4(C)[C@H]3CC[C@]12C` [Brassinosteroid 9, 28-Homocastasterone], for which the “strength of growth inhibitory response relative to 28-homobrassinolide 2” value in assay [2] is recorded as “about 3 times”. In the assay with MDA-MB-468 cells, the “expression of apoptosis related proteins (Bcl-2 family, caspase-3 activation) (Western blot)” value is listed as “no significant changes in expression of Bcl-2 family protein nor caspase-3 activation”; the “p21Waf1/Cip1 expression (Western blot)” value is “no significant changes”; the “p27Kip1 expression (Western blot)” value is “no significant changes”; the “retinoblastoma protein (Rb) expression, phosphorylated and dephosphorylated forms (Western blot)” value is listed as “decreased”.
